# Results reported in the Kinase Knowledgebase extract (Sharma et al. 2016).
# Biological target: PIK3CG (human) (UniProt P48736)
# Test: Assessment of PIK3CG Kinase Activity
# Sequence of PIK3CG (human) (P48736 whole entry, looked up): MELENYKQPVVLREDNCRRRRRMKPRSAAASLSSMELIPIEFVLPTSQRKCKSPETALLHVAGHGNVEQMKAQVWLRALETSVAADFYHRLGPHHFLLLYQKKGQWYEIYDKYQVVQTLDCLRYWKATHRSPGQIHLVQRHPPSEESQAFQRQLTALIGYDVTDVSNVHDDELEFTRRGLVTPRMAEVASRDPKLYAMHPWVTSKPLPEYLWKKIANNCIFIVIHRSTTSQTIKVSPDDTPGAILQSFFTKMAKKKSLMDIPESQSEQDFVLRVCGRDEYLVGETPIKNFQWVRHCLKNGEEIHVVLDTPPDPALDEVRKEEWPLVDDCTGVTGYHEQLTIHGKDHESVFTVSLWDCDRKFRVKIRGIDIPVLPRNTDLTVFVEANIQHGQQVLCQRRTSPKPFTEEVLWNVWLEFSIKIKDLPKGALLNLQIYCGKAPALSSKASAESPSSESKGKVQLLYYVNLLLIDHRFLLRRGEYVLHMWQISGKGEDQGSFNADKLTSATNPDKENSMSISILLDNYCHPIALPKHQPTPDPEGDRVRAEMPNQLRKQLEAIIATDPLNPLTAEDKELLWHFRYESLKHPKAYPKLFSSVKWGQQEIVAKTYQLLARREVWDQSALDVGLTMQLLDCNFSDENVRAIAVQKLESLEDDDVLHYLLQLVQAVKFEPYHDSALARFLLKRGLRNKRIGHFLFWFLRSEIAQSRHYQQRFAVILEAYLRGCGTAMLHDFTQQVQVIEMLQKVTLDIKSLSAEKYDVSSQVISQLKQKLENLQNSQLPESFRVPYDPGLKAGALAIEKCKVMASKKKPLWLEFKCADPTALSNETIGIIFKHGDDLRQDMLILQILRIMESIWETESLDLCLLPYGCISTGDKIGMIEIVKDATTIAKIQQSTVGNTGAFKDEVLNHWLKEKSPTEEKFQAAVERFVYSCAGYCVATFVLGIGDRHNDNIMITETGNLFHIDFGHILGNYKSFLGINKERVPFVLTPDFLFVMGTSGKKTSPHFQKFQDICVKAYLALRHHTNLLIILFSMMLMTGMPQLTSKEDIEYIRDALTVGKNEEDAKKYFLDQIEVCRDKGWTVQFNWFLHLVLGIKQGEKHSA
row,SMILES,IC50
1,CC(=O)Nc1nc2c(s1)-c1nc(-c3cc(C#Cc4cccnc4)ccc3Cl)ncc1CC2,< 600 nM
2,CC(=O)Nc1nc2c(s1)-c1nc(-c3cc(C#CCCCN(C)C(C)C)ccc3Cl)ncc1CC2,< 600 nM
3,CC(=O)Nc1nc2c(s1)-c1nc(-c3cc(Cl)cc(C#CCN(C)C)c3)ncc1CC2,< 600 nM
4,CC(=O)Nc1nc2c(s1)-c1nc(-c3cc(C#CC4(NC(C)C)CCCCC4)ccc3Cl)ncc1CC2,< 600 nM
5,COC1(C#Cc2ccc(Cl)c(-c3ncc4c(n3)-c3sc(NC(C)=O)nc3CC4)c2)CCN(C2CCCC2)CC1,< 600 nM
6,COC1(C#Cc2ccc(F)c(-c3ncc4c(n3)-c3sc(NC(C)=O)nc3CC4)c2)CCN(C)CC1,< 600 nM
7,CC(=O)Nc1nc2c(s1)-c1nc(-c3cc(C#CCCNC(C)C)ccc3Cl)ncc1CC2,< 600 nM
8,CC(=O)Nc1nc2c(s1)-c1nc(-c3cccc(C#CCN(C)C)c3)ncc1CC2,< 600 nM
9,CC(=O)Nc1nc2c(s1)-c1nc(-c3cc(C#CCNCc4ncccc4C)ccc3Cl)ncc1CC2,< 600 nM
10,CC(=O)Nc1nc2c(s1)-c1nc(-c3cc(C#CC4(N(C)C)CCCC4)ccc3Cl)ncc1CC2,< 600 nM
11,CC(=O)Nc1nc2c(s1)-c1nc(-c3cc(C#CCCN4CCCC4)ccc3Cl)ncc1CC2,< 600 nM
12,CNC(=O)NCC#Cc1ccc(Cl)c(-c2ncc3c(n2)-c2sc(NC(C)=O)nc2CC3)c1,< 600 nM
13,CC(=O)Nc1nc2c(s1)-c1nc(-c3cc(C#CCCCNC4CCN(C)CC4)ccc3Cl)ncc1CC2,< 600 nM
14,CC(=O)Nc1nc2c(s1)-c1nc(-c3cc(Cl)cc(C#CC4(N)CCCCC4)c3)ncc1CC2,< 600 nM
15,CNCC#Cc1cccc(-c2ncc3c(n2)-c2sc(NC(C)=O)nc2CC3)c1,< 600 nM
16,CC(=O)Nc1nc2c(s1)-c1nc(-c3cc(C#CCCCNC4CCCC4)ccc3Cl)ncc1CC2,< 600 nM
17,CC(=O)Nc1nc2c(s1)-c1nc(-c3cccc(C#CCNS(=O)(=O)N(C)C)c3)ncc1CC2,< 600 nM
18,CC(=O)Nc1nc2c(s1)-c1nc(-c3cc(C#CCNC(=O)Cn4ccnc4)ccc3Cl)ncc1CC2,< 600 nM
19,CC(=O)Nc1nc2c(s1)-c1nc(-c3cc(C#CCNC(=O)CC4CC4)ccc3Cl)ncc1CC2,< 600 nM
20,CC(=O)Nc1nc2c(s1)-c1nc(-c3cc(C#CCCCN4CCN(C)CC4)ccc3Cl)ncc1CC2,< 600 nM

row,SMILES,IC50
1,CC(=O)Nc1nc2c(s1)-c1nc(-c3cc(C#CC4(O)CCN(C5CCCC5)CC4)ccc3F)ncc1CC2,< 600 nM
2,CC(=O)Nc1nc2c(s1)-c1nc(-c3cc(C#CCCN(C)C(C)C)ccc3Cl)ncc1CC2,< 600 nM
3,CC(=O)Nc1nc2c(s1)-c1nc(-c3cc(C#CC4(O)CCN(C(C)C)CC4)ccc3Cl)ncc1CC2,< 600 nM
4,CC(=O)Nc1nc2c(s1)-c1nc(-c3cc(C#CCNCC(C)(C)C)ccc3Cl)ncc1CC2,< 600 nM
5,CC(=O)Nc1nc2c(s1)-c1nc(-c3cc(C#CCO[C@@H]4CN5CCC4CC5)ccc3Cl)ncc1CC2,< 600 nM
6,CC(=O)Nc1nc2c(s1)-c1nc(-c3cc(C#CC4CCN(C(=O)CC5CCCC5)CC4)ccc3Cl)ncc1CC2,< 600 nM
7,CC(=O)Nc1nc2c(s1)-c1nc(-c3cc(C#CCCCN(C)C)ccc3Cl)ncc1CC2,< 600 nM
8,CNC(=O)N(C)CCC#Cc1ccc(Cl)c(-c2ncc3c(n2)-c2sc(NC(C)=O)nc2CC3)c1,< 600 nM
9,CC(=O)Nc1nc2c(s1)-c1nc(-c3cc(C#CCNCCN4CCCC4)ccc3Cl)ncc1CC2,< 600 nM
10,CC(=O)Nc1nc2c(s1)-c1nc(-c3cc(C#CCOC4CCN(C(C)=O)CC4)ccc3Cl)ncc1CC2,< 600 nM
11,CC(=O)Nc1nc2c(s1)-c1nc(-c3cc(Cl)cc(C#CCN(C)S(C)(=O)=O)c3)ncc1CC2,< 600 nM
12,CC(=O)Nc1nc2c(s1)-c1nc(-c3cc(C#C[C@H]4CCCN4)ccc3Cl)ncc1CC2,< 600 nM
13,CC(=O)Nc1nc2c(s1)-c1nc(-c3cc(C#CC4CCN(C(=O)CC(C)C)CC4)ccc3Cl)ncc1CC2,< 600 nM
14,CC(=O)Nc1nc2c(s1)-c1nc(-c3cccc(C#CCNS(=O)(=O)C4CC4)c3)ncc1CC2,< 600 nM
15,CC(=O)Nc1nc2c(s1)-c1nc(-c3cc(C#CCNC(=O)CC4CCCC4)ccc3Cl)ncc1CC2,< 600 nM
16,CC(=O)Nc1nc2c(s1)-c1nc(-c3cc(C#CCNC(=O)C4CC4)ccc3Cl)ncc1CC2,< 600 nM
17,CCNC1(C#Cc2ccc(Cl)c(-c3ncc4c(n3)-c3sc(NC(C)=O)nc3CC4)c2)CCCCC1,< 600 nM
18,CC(=O)Nc1nc2c(s1)-c1nc(-c3cc(C#CCN(C)S(=O)(=O)C4CC4)ccc3Cl)ncc1CC2,< 600 nM
19,CC(=O)Nc1nc2c(s1)-c1nc(-c3cc(C#CCCCNC(C)C)ccc3Cl)ncc1CC2,< 600 nM
20,CC(=O)Nc1nc2c(s1)-c1nc(-c3cc(C#CCNS(=O)(=O)c4ccccc4)ccc3Cl)ncc1CC2,< 600 nM

# Further lines, results first:
row,IC50,SMILES
1,< 600 nM,CNC(=O)N1CCC(C#Cc2ccc(Cl)c(-c3ncc4c(n3)-c3sc(NC(C)=O)nc3CC4)c2)CC1
2,< 600 nM,CC(=O)Nc1nc2c(s1)-c1nc(-c3cc(C#CCNS(=O)(=O)C(C)C)ccc3Cl)ncc1CC2
3,< 600 nM,CC(=O)Nc1nc2c(s1)-c1nc(-c3cccc(C#CC4CCN(C(C)C)CC4)c3)ncc1CC2
4,< 600 nM,CC(=O)Nc1nc2c(s1)-c1nc(-c3cc(C#CC4CCN(CC5CCCC5)CC4)ccc3Cl)ncc1CC2
5,< 600 nM,CC(=O)Nc1nc2c(s1)-c1nc(-c3cc(C#CCN)ccc3Cl)ncc1CC2
6,< 600 nM,CC(=O)Nc1nc2c(s1)-c1nc(-c3cc(C#CC4CCN(C5CCCC5)CC4)ccc3F)ncc1CC2
7,< 600 nM,CC(=O)Nc1nc2c(s1)-c1nc(-c3cc(Cl)cc(C#CCNC(=O)CC(C)(C)C)c3)ncc1CC2
8,< 600 nM,CC(=O)Nc1nc2c(s1)-c1nc(-c3cc(C#CCN4CCN(C5CCCC5)CC4)ccc3Cl)ncc1CC2
9,< 600 nM,CC(=O)Nc1nc2c(s1)-c1nc(-c3cc(C#CC(C)(C)N)ccc3Cl)ncc1CC2
10,< 600 nM,CC(=O)Nc1nc2c(s1)-c1nc(-c3cc(C#CCN(C)C(=O)C4CCCC4)ccc3Cl)ncc1CC2
11,< 600 nM,CC(=O)Nc1nc2c(s1)-c1nc(-c3cc(C#CCNC(=O)CC(C)(C)C)ccc3Cl)ncc1CC2
12,< 600 nM,CC(=O)Nc1nc2c(s1)-c1nc(-c3cc(C#CC4CCCCC4)ccc3Cl)ncc1CC2
13,< 600 nM,CNCC#Cc1ccc(Cl)c(-c2ncc3c(n2)-c2sc(NC(C)=O)nc2CC3)c1
14,< 600 nM,CC(=O)Nc1nc2c(s1)-c1nc(-c3cc(C#CCCCN4CCC(N(C)C)CC4)ccc3Cl)ncc1CC2
15,< 600 nM,CC(=O)Nc1nc2c(s1)-c1nc(-c3cc(C#CCNC(=O)NCC4CCCCC4)ccc3Cl)ncc1CC2
16,< 600 nM,CC(=O)Nc1nc2c(s1)-c1nc(-c3cc(C#CC4(O)CCCCC4)ccc3Cl)ncc1CC2
17,< 600 nM,CC(=O)Nc1nc2c(s1)-c1nc(-c3cc(C#CCNC(=O)CC4CCN(C)CC4)ccc3Cl)ncc1CC2
18,< 600 nM,CC(=O)Nc1nc2c(s1)-c1nc(-c3cc(C#CCNS(=O)(=O)N4CCOCC4)ccc3Cl)ncc1CC2
19,< 600 nM,CC(=O)Nc1nc2c(s1)-c1nc(-c3cc(C#CCN(C)S(=O)(=O)CC(F)(F)F)ccc3Cl)ncc1CC2
20,< 600 nM,CC(=O)Nc1nc2c(s1)-c1nc(-c3cc(C#CCNC4CCCC4)ccc3Cl)ncc1CC2
21,< 600 nM,CCN(CC)S(=O)(=O)NCC#Cc1ccc(Cl)c(-c2ncc3c(n2)-c2sc(NC(C)=O)nc2CC3)c1
22,< 600 nM,CC(=O)Nc1nc2c(s1)-c1nc(-c3cc(C#CCCO)ccc3Cl)ncc1CC2
23,< 600 nM,CC(=O)Nc1nc2c(s1)-c1nc(-c3cc(C#CCNC(=O)C4CCCCC4)ccc3Cl)ncc1CC2
24,< 600 nM,CC(=O)Nc1nc2c(s1)-c1nc(-c3cc(C#CCN(C)C(C)C)ccc3Cl)ncc1CC2

row,IC50,SMILES
1,< 600 nM,CNC(=O)Nc1nc2c(s1)-c1nc(-c3cc(C#CC4CCN(C5CCCC5)CC4)ccc3Cl)ncc1CC2
2,< 600 nM,CNC1(C#Cc2ccc(Cl)c(-c3ncc4c(n3)-c3sc(NC(C)=O)nc3CC4)c2)CCCCC1
3,< 600 nM,CC(=O)Nc1nc2c(s1)-c1nc(-c3cc(C#CC4CCN(S(=O)(=O)N(C)C)CC4)ccc3Cl)ncc1CC2
4,< 600 nM,CC(=O)Nc1nc2c(s1)-c1nc(-c3cc(C#CCNC(=O)C(C)C)ccc3Cl)ncc1CC2
5,< 600 nM,CC(=O)Nc1nc2c(s1)-c1nc(-c3cc(C#CCCN4CCC(N(C)C)CC4)ccc3Cl)ncc1CC2
6,< 600 nM,CC(=O)Nc1nc2c(s1)-c1nc(-c3cc(C#CCNS(=O)(=O)CC(F)(F)F)ccc3Cl)ncc1CC2
7,< 600 nM,CC(=O)Nc1nc2c(s1)-c1nc(-c3cccc(C#CCNC(=O)C4CCCC4)c3)ncc1CC2
8,< 600 nM,CC(=O)Nc1nc2c(s1)-c1nc(-c3cc(C#CCNC(=O)CC(C)C)ccc3Cl)ncc1CC2
9,< 600 nM,CC(=O)Nc1nc2c(s1)-c1nc(-c3cc(C#CC4CCN(C5CCCC5)CC4)ccc3Cl)ncc1CC2
10,< 600 nM,CC(=O)Nc1nc2c(s1)-c1nc(-c3cc(C#CCCNCC4CCCC4)ccc3Cl)ncc1CC2
11,< 600 nM,CC(=O)Nc1nc2c(s1)-c1nc(-c3cc(C#Cc4ccccn4)ccc3Cl)ncc1CC2
12,< 600 nM,CC(=O)Nc1nc2c(s1)-c1nc(-c3cccc(C#CC4CCN(CC5CCCC5)CC4)c3)ncc1CC2
13,< 600 nM,CC(=O)Nc1nc2c(s1)-c1nc(-c3cc(C#CCNCC4CCCC4)ccc3Cl)ncc1CC2
14,< 600 nM,CC(=O)Nc1nc2c(s1)-c1nc(-c3cccc(C#CC4(O)CCN(C5CCCC5)CC4)c3)ncc1CC2
15,< 600 nM,CC(=O)Nc1nc2c(s1)-c1nc(-c3cc(C#CC4CCN(C(=O)C5CCCC5)CC4)ccc3Cl)ncc1CC2
16,< 600 nM,CCS(=O)(=O)N(C)CC#Cc1ccc(Cl)c(-c2ncc3c(n2)-c2sc(NC(C)=O)nc2CC3)c1
17,< 600 nM,CC(=O)Nc1nc2c(s1)-c1nc(-c3cc(C#CC4(N5CCCC5)CCCCC4)ccc3Cl)ncc1CC2
18,< 600 nM,CC(=O)Nc1nc2c(s1)-c1nc(-c3cc(C#CCN(C)CC(C)C)ccc3Cl)ncc1CC2
19,< 600 nM,CC(=O)Nc1nc2c(s1)-c1nc(-c3cc(C#CC4CCN(C(=O)N(C)C)CC4)ccc3Cl)ncc1CC2
20,< 600 nM,CC(=O)Nc1nc2c(s1)-c1nc(-c3cc(C#CCNC(=O)NC4CCCC4)ccc3Cl)ncc1CC2
21,< 600 nM,CC(=O)Nc1nc2c(s1)-c1nc(-c3cc(C#CCNCc4ccccn4)ccc3Cl)ncc1CC2
22,< 600 nM,COC1(C#Cc2ccc(F)c(-c3ncc4c(n3)-c3sc(NC(C)=O)nc3CC4)c2)CCCCC1
23,< 600 nM,CC(=O)Nc1nc2c(s1)-c1nc(-c3cc(C#CCN(C)S(=O)(=O)C(C)C)ccc3Cl)ncc1CC2
24,< 600 nM,CC(=O)Nc1nc2c(s1)-c1nc(-c3cc(C#CCNS(=O)(=O)N4CCCC4)ccc3Cl)ncc1CC2
